We go through two molecules from ChEMBL document CHEMBL5120841, “Discovery of novel pleuromutilin derivatives as potent antibacterial agents” (2022).

Values after ≈ are worked out from the molar mass of the structure shown. Active and inactive are the calls of the source. No cut-off for these calls is given here.

Assay [1] relates to Staphylococcus epidermidis. The experiment in a line: Antibacterial activity against methicillin-resistant Staphylococcus epidermidis ATCC 51625 assessed as bacterial growth inhibition incubated for 18 to 24 hrs by microtiter dilution method. The class given is functional. The conditions noted are these: time 18-24 hrs.
Assay [2] relates to Staphylococcus aureus. Nature of the assay: Antibacterial activity against methicillin-resistant Staphylococcus aureus BNCC 337371 infected in Kunming mouse lung assessed as reduction on lymphocyte infiltration at 40 mg/kg,ip measured after 7 days by hematoxylin and eosin staining based light microscopic analysis. The class given is functional, organism-based. The conditions noted are these: time 7.0 day.

For assay [3], the system named is Staphylococcus aureus. Nature of the assay: Antibacterial activity against methicillin-resistant Staphylococcus aureus BNCC 337371 infected in Kunming mouse lung assessed as reduction on neutrophil infiltration at 40 mg/kg,ip measured after 7 days by hematoxylin and eosin staining based light microscopic analysis. The class given is functional, organism-based. As to conditions: time 7.0 day.

Assay [4] concerns Staphylococcus aureus. Nature of the assay: Antibacterial activity against methicillin-resistant Staphylococcus aureus BNCC 337371 infected in Kunming mouse lung assessed as reduction on alveolar diaphragm thickening at 40 mg/kg,ip measured after 7 days by hematoxylin and eosin staining based light microscopic analysis. The class given is functional, organism-based. The conditions noted are these: time 7.0 day.

A further assay deals with Enterococcus faecalis. Nature of the assay: Antibacterial activity against Enterococcus faecalis assessed as bacterial growth inhibition incubated for 18 to 24 hrs by microtiter dilution method. Type of assay: functional. As to conditions: time 18-24 hrs.
The subject of assay [5] is Staphylococcus aureus. The experiment in a line: Antibacterial activity against methicillin-resistant Staphylococcus aureus BNCC 337371 infected in Kunming mouse kidney assessed as reduction on bacterial growth at 40 mg/kg,ip dosed measured after 7 days by 10-fold dilution method. The conditions noted are these: time 7 day. The class given is functional.
A further assay deals with Escherichia coli. The experiment in a line: Antibacterial activity against Escherichia coli CICC 10389 assessed as bacterial growth inhibition incubated for 18 to 24 hrs by microtiter dilution method. The class given is functional. As to conditions: time 18-24 hrs.
For assay [6], the system named is Staphylococcus aureus. Nature of the assay: Antibacterial activity against methicillin-resistant Staphylococcus aureus BNCC 337371 assessed as bacterial growth inhibition incubated for 18 to 24 hrs by microtiter dilution method. The class given is functional. As to conditions: time 18-24 hrs.
In assay [7] the test system is Staphylococcus aureus. Nature of the assay: Antibacterial activity against methicillin-resistant Staphylococcus aureus BNCC 337371 infected in Kunming mouse lung assessed as reduction on neutrophil infiltration at 15 mg/kg,ip measured after 7 days by hematoxylin and eosin staining based light microscopic analysis. Type of assay: functional, organism-based. As to conditions: time 7.0 day.

For assay [8], the system named is Staphylococcus aureus. Nature of the assay: Antibacterial activity against Staphylococcus aureus ATCC 25923 assessed as bacterial growth inhibition incubated for 18 to 24 hrs by microtiter dilution method. As to conditions: time 18-24 hrs. The class given is functional.
In assay [9] the test system is Staphylococcus aureus. Nature of the assay: Antibacterial activity against methicillin-resistant Staphylococcus aureus BNCC 337371 infected in Kunming mouse lung assessed as reduction on lymphocyte infiltration at 15 mg/kg,ip measured after 7 days by hematoxylin and eosin staining based light microscopic analysis. The conditions noted are these: time 7.0 day. Type of assay: functional, organism-based.

For assay [10], the system named is Staphylococcus aureus. The experiment in a line: Antibacterial activity against Staphylococcus aureus ATCC 25923 assessed as reduction on bacterial count at 6X MIC incubated for 24 hrs by time killing assay. The class given is functional.
Assay [11] concerns Staphylococcus aureus. The experiment in a line: Antibacterial activity against methicillin-resistant Staphylococcus aureus BNCC 337371 infected in Kunming mouse liver assessed as reduction on bacterial growth at 40 mg/kg,ip dosed measured after 7 days by 10-fold dilution method. Type of assay: functional, organism-based. As to conditions: time 7.0 day.
Assay [12] concerns Staphylococcus aureus. Nature of the assay: Antibacterial activity against methicillin-resistant Staphylococcus aureus BNCC 337371 infected in Kunming mouse lung assessed as reduction on bacterial growth at 15 mg/kg,ip dosed measured after 7 days by 10-fold dilution method. The class given is functional. The conditions noted are these: time 7 day.
Assay [13] concerns Staphylococcus aureus. Nature of the assay: Antibacterial activity against methicillin-resistant Staphylococcus aureus BNCC 337371 infected in Kunming mouse lung assessed as reduction on bacterial growth at 40 mg/kg,ip dosed measured after 7 days by 10-fold dilution method. The class given is functional. The conditions noted are these: time 7 day.
The test system of assay [14] is Staphylococcus aureus. Nature of the assay: Antibacterial activity against methicillin-resistant Staphylococcus aureus BNCC 337371 infected in Kunming mouse assessed as reduction on bacterial growth by measuring survival rate at ip dosed measured after 7 days by Bliss method. Type of assay: functional. The conditions noted are these: BNCC 337371, 168 h, time 7 day.

For assay [15], the system named is Staphylococcus aureus. The experiment in a line: Antibacterial activity against methicillin-resistant Staphylococcus aureus BNCC 337371 assessed as reduction on bacterial count at 6X MIC incubated for 24 hrs by time killing assay. Type of assay: functional.
The test system of assay [16] is Staphylococcus aureus. The experiment in a line: Antibacterial activity against methicillin-resistant Staphylococcus aureus BNCC 337371 infected in Kunming mouse lung assessed as reduction on alveolar diaphragm thickening at 15 mg/kg,ip measured after 7 days by hematoxylin and eosin staining based light microscopic analysis. Type of assay: functional, organism-based. The conditions noted are these: time 7.0 day.

In another assay the test system is Bacillus subtilis. Nature of the assay: Antibacterial activity against Bacillus subtilis assessed as bacterial growth inhibition incubated for 18 to 24 hrs by microtiter dilution method. Type of assay: functional. The conditions noted are these: time 18-24 hrs.
Assay [17] deals with Staphylococcus aureus. The experiment in a line: Antibacterial activity against methicillin-resistant Staphylococcus aureus BNCC 337371 infected in Kunming mouse lung assessed as reduction on pulmonary fibrosis at 15 mg/kg,ip measured after 7 days by hematoxylin and eosin staining based light microscopic analysis. Type of assay: functional, organism-based. As to conditions: time 7.0 day.

Consider `C=C[C@]1(C)C[C@@H](OC(=O)CSc2nc(C)c(C(=O)OCC)c(C)n2)[C@]2(C)[C@H](C)CC[C@]3(CCC(=O)[C@H]32)[C@@H](C)[C@@H]1O`, for which the MIC in assay [1] is no more than 0.0156 µg/mL; with Enterococcus faecalis, greater than 16 µg/mL; with Escherichia coli, greater than 16 µg/mL; in the assay with Staphylococcus aureus [6], no more than 0.0156 µg/mL; in the assay with Staphylococcus aureus [8], no more than 0.0156 µg/mL; in the assay on Bacillus subtilis it was 4 µg/mL (≈ 6.98 µM). For the same molecule, the outcome with Staphylococcus aureus [2], in the assay on Staphylococcus aureus [3], in the assay with Staphylococcus aureus [4], in the assay with Staphylococcus aureus [7], with Staphylococcus aureus [9] and in the assay on Staphylococcus aureus [11] was Active. The result in the assay with Staphylococcus aureus [16] was Active. Moreover, the Activity is given as 3.24 log10CFU/ml in the assay with Staphylococcus aureus [5]; 3.62 log10CFU/ml in the assay on Staphylococcus aureus [10]; 2.97 log10CFU/ml in the assay with Staphylococcus aureus [12]; 4.95 log10CFU/ml in the assay with Staphylococcus aureus [13]; 2.44 log10CFU/ml in the assay with Staphylococcus aureus [15]. Moreover, in the assay on Staphylococcus aureus [14], the ED50 amounted to 16.1 mg/kg.

Turning to `C=C[C@]1(C)C[C@@H](OC(=O)CSCCN(CC)CC)[C@]2(C)[C@H](C)CC[C@]3(CCC(=O)[C@H]32)[C@@H](C)[C@@H]1O.O=C(O)/C=C/C(=O)O` [TIAMULIN FUMARATE], the MIC in [1] was 0.5 µg/mL; in the assay with Enterococcus faecalis, greater than 16 µg/mL; in the assay on Escherichia coli, greater than 16 µg/mL; in the assay on Staphylococcus aureus [6] it was 0.5 µg/mL; in the assay with Staphylococcus aureus [8], 0.5 µg/mL; with Bacillus subtilis, greater than 16 µg/mL. Further, the outcome in the assay on Staphylococcus aureus [2], with Staphylococcus aureus [3], in the assay with Staphylococcus aureus [4], with Staphylococcus aureus [7], in the assay on Staphylococcus aureus [9] and in the assay on Staphylococcus aureus [17] was Active. In addition, in the assay with Staphylococcus aureus [16], the result was Active. Moreover, the figures for the Activity in the assay on Staphylococcus aureus [12] and with Staphylococcus aureus [13] were 1.68 log10CFU/ml and 2.56 log10CFU/ml, respectively. In the assay on Staphylococcus aureus [14], the median effective dose (ED50) was found to be 22.9 mg/kg.

The MIC is the least concentration at which growth counts as inhibited. The term ED50 denotes the dose that gives a 50% effect, or the effect in half of the subjects.
